Test results taken from patent US9480259B2, “Pyrazolopyrans having herbicidal and pharmaceutical properties” (BASF SE, priority 2012, dated 2016).

Key:
[1] = target: Arabidopsis thaliana SHMT; assay: SHMT activity assay (ED50 SHMT), coupled with N5,N10-CH2-THF dehydrogenase, NADH at 340 nm; assay type: biochemical; settings: values given as upper bounds
Summary of the method: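 His-tagged SHMT purified on Ni-NTA. NADH formation followed at 340 nm for 30 min; ED50 from inhibition of initial velocity.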

[2] = tested on: AMARE (Amaranthus retroflexus); assay: Greenhouse herbicidal test, post-emergence, AMARE; assay type: in vivo; settings: Amaranthus retroflexus, application rate 1 kg/ha, scale 0 to 100, read-out: herbicidal activity against AMARE
Source text: (§1) The seeds of the test plants were sown separately for each species. For the post-emergence treatment, the test plants were first grown to a height of 2 to 5 cm, depending on the plant habit, and only then treated with the active ingredients which had been suspended or emulsified in water. For this purpose, the test plants were either sown directly and grown in the same containers, or they were first grown separately as seedlings and transplanted into the test containers a few days prior to treatment. Depending on the species, the plants were kept at 10-25° C. or 20-35° C. The test period extended over 8 to 9 days. During this time, the plants were tended, and their response to the individual treatments was evaluated. Evaluation was carried out using a scale from 0 to 100. 100 means no emergence of the plants, or complete destruction of at least the aerial moieties, and 0 means no damage, or normal course of growth. A good herbicidal activity is given at values of at least 70 and a very good herbicidal activity is given at values of at least 85. The plants used in the greenhouse experiments belonged to the following species: [table]

[3] = tested on: SETFA, AMARE, POLCO, CHEAL, GALAP; assay: Greenhouse herbicidal test, post-emergence, weed panel; assay type: in vivo; settings: application rate 1 kg/ha, scale 0 to 100
Source text: as §1

[4] = tested on: GALAP (Galium aparine); assay: Greenhouse herbicidal test, post-emergence, GALAP; assay type: in vivo; settings: application rate 1 kg/ha, scale 0 to 100
Source text: as §1

[5] = tested on: CHEAL (Chenopodium album); assay: Greenhouse herbicidal test, post-emergence, CHEAL; assay type: in vivo; settings: Chenopodium album, application rate 1 kg/ha, scale 0 to 100, read-out: herbicidal activity against CHEAL
Source text: as §1

[6] = tested on: SETFA (Setaria faberi); assay: Greenhouse herbicidal test, post-emergence, SETFA; assay type: in vivo; settings: application rate 1 kg/ha, scale 0 to 100, read-out: herbicidal activity against SETFA
Source text: as §1

[7] = Arabidopsis thaliana SHMT enzyme assay

| EC50 ([1]; Table 2) [nM] | EC50 [1, 7] [nM] | SMILES | pest or weed control at 1000 g/ha [2] [%] | herbicidal activity against at least three of the weeds SETFA, AMARE, POLCO, CHEAL, GALAP [3] | herbicidal activity against GALAP [4] | pest or weed control at 1000 g/ha [5] [%] | pest or weed control at 1000 g/ha [6] [%] |
| --- | --- | --- | --- | --- | --- | --- | --- |
| < 10 | – | COc1c(C#N)cc(C2(C3CCC3)C(C#N)=C(N)Oc3[nH]nc(C)c32)cc1C#N (centres unmarked) [Compound 2.486] | ≥ 85 | good or very good | very good (a very good herbicidal activity is given at values of at least 85) | ≥ 70 | – |
| – | < 10 | COCC(=O)N(C)c1cc(C#N)cc(C2(C(C)C)C(C#N)=C(N)Oc3[nH]nc(C)c32)c1 (centres unmarked) [Compound 2.688] | ≥ 85 | good or very good | – | ≥ 85 | ≥ 85 |
| – | < 100 | CC(=O)NCC(=O)N(C)c1cc(C#N)cc(C2(C3CCC3)C(C#N)=C(N)Oc3[nH]nc(C)c32)c1 (centres unmarked) [Compound 2.709] | ≥ 85 | good or very good | – | ≥ 85 | ≥ 70 |
| – | < 10 | Cc1n[nH]c2c1C(c1cc(Br)cc(N(C)C(=O)CC#N)c1)(C1CCC1)C(C#N)=C(N)O2 (centres unmarked) [Compound 2.729] | ≥ 85 | good or very good | – | ≥ 85 | ≥ 70 |
